# Values of other authors, collected in patent publication US9353109B2, “Flindersia alkaloids, derivatives and analogs: compositions and methods for producing the same” (UNIVERSITY OF HOUSTON SYSTEM, priority 2012, dated 2016).
# Tested on: chloroquine-resistant falciparum strains
# Settings: at concentrations that do not affect mammalian cells' viability
row,Compound,effectiveness toward chloroquine-resistant falciparum strains
1,"C[C@@H]1CC[C@H]2[C@@H](C)C(=O)O[C@@H]3O[C@@]4(C)CC[C@@H]1[C@]32OO4 [artemisinin, reference compound]",show effectiveness toward chloroquine-resistant falciparum strains
2,"CCN(CC)CCCC(C)Nc1ccnc2cc(Cl)ccc12 (stereo not shown) [chloroquine, reference compound]",show effectiveness toward chloroquine-resistant falciparum strains
3,CNCCc1c(/C=C/[C@@]2(C)C[C@H](C=C(C)C)c3c(CCNC)c4ccccc4n32)[nH]c2ccccc12 [flinderole A],show effectiveness toward chloroquine-resistant falciparum strains
4,CC(C)=C[C@H]1C[C@](C)(/C=C/c2[nH]c3ccccc3c2CCN(C)C)n2c1c(CCN(C)C)c1ccccc12 [flinderole B],show effectiveness toward chloroquine-resistant falciparum strains
5,CC(C)=C[C@H]1C[C@@](C)(/C=C/c2[nH]c3ccccc3c2CCN(C)C)n2c1c(CCN(C)C)c1ccccc12 [flinderole C],show effectiveness toward chloroquine-resistant falciparum strains
6,CNCCc1c(C2C3C(C=C(C)CC3(C)C)c3c(CCNC)c4ccccc4n32)[nH]c2ccccc12 (stereo not shown) [isoborreverine],show effectiveness toward chloroquine-resistant falciparum strains
7,dimethylisoborreverine,show effectiveness toward chloroquine-resistant falciparum strains
